The source of these data is US12173088B2, “Anti-microbial peptides” (priority 2018, dated 2024).

The test system of one series is P. aeruginosa E411-17. Put plainly: microbe, parasite or virus in culture. As to conditions: E411-17; read-out: MIC P. aeruginosa E411-17. Type of series: cell-based, Pseudomonas aeruginosa. The procedure, abridged:
(§1)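 Peptides were serially diluted two-fold against bacteria grown in tryptic soy broth to log phase (OD600 ≈0.5), then seeded at OD600 0.001. Plates were held overnight at 37° C and read at 630 nm. USA300 was also tested at pH 6.8, 7.2 and 8.0, with 150 mM NaCl or 5-10% serum, plasma or peritoneal fluid.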

A further series deals with P. aeruginosa PAO1. Type of series: cell-based, Pseudomonas aeruginosa. The settings on record: PAO1. A digest of the protocol:
(§2)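 Broth microdilution in tryptic soy broth: log-phase cultures (OD600 ≈0.5) diluted to OD600 0.001, given two-fold peptide dilutions, incubated overnight at 37° C. Growth read at 630 nm.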

The test system of a further series is E. faecium V286-17 (VRE). Put plainly: microbe, parasite or virus in culture. Type of series: cell-based, Enterococcus faecium. The settings on record: V286-17 (VRE). The procedure, abridged:
as §1

Another series concerns E. coli ATCC 25922. It is filed as cell-based, Escherichia coli. The settings on record: ATCC 25922. A digest of the protocol:
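Peptides, serially diluted two-fold, were incubated overnight at 37 °C with E. coli ATCC 25922 from log-phase cultures adjusted to OD600 0.001. Turbidity at 630 nm served as the read-out in this broth microdilution format.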

The next series deals with E. coli E423-17. Put plainly: microbe, parasite or virus in culture. It is filed as cell-based, Escherichia coli. As to conditions: E423-17; read-out: MIC E. coli E423-17. A digest of the protocol: as §1
Series [1] concerns S. aureus USA300. Put plainly: microbe, parasite or virus in culture. Type of series: cell-based, Staphylococcus aureus. A digest of the protocol: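 Broth microdilution: log-phase cultures in tryptic soy broth diluted to OD600 0.001, exposed to two-fold diluted peptides at 37° C overnight, growth read at 630 nm. Medium effects on S. aureus USA300 tested with up to 200 mM NaCl, 2 mM CaCl2, 5-10% human serum, mouse plasma, fluids or tissue homogenate supernatants.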

For a further series, the system named is S. aureus M838-17 (MRSA). Put plainly: microbe, parasite or virus in culture. As to conditions: M838-17; read-out: MIC S. aureus M838-17 (MRSA). Type of series: cell-based, Staphylococcus aureus. A digest of the protocol:
as §1

Series [2] has as its system trypsin, chymotrypsin, S. aureus V8 protease, Proteinase K.
Experimental: Briefly, a solution (100 μL) of peptide/protease molar ratio, 40:1 was made in 10 mM PBS buffer (pH 8.0) and was incubated at 37° C. Aliquots (10 μL) of the reaction solutions were taken after 1, 3 and 6 days and immediately mixed with 20 μL of 2×SDS loading buffer and boiled in a water bath to stop the reaction. For the SDS gel analysis, 10 μL of each sample was loaded to the well of a 5% stacking/18% resolving tricine gel and run at a constant current of 35 mA.
Another series deals with K. pneumoniae E406-17. Put plainly: microbe, parasite or virus in culture. Type of series: cell-based, Klebsiella pneumoniae. The settings on record: E406-17; read-out: MIC K. pneumoniae E406-17. A digest of the protocol:
as §2

The test system of another series is E. coli ampC E416-7. Type of series: cell-based, Escherichia coli. The settings on record: Table 7. From the text: The bacterial strains used include the Gram-positive strains Staphylococcus aureus USA300 LAC, S. epidermidis 1457, and Bacillus subtilis 168, as well as the Gram-negative isolates Escherichia coli K12 and Acinetobacter baumannii B2367-12. Additional, drug resistance strains include Gram-positive Enterococcus faecium V286-17 (VRE) and S. aureus M838-17 (MRSA) and Gram-negative E. coli E423-17, E. coli E416-17 (ampC), and P. aeruginosa E411-17. Bacteria were cultivated in tryptic soy broth (TSB) (BD Bioscience, MD).
The antibacterial activity of peptides was evaluated using a standard broth microdilution protocol with minor modifications as described (Mishra, et al. (2012) J. Am. Chem. Soc., 134:12426-12429). In brief, logarithmic phase bacterial cultures (i.e., optical density at 600 nm≈0.5) were diluted to OD600 0.001 and partitioned into a 96-well polystyrene microplate at 90 μL per well. After treatment with 10 μL of peptide solutions two fold diluted to various concentrations, microplates were incubated at 37° C. overnight and read on a ChroMate® 4300 Microplate Reader at 630 nm (GMI, Ramsey, MN). […] To study the influence of medium conditions on the antimicrobial activity of peptides against S. aureus USA300, up to 200 mM sodium chloride (NaCl), 2 mM of calcium chloride, 5-10% of human serum, mouse plasma, fluid, or supernatants of tissue homogenates were included into the assays.

A short description of a further series: Hemolytic assay. Type of series: cell-based, human. The settings on record: human, human red blood cells, 2% (v/v). A digest of the protocol: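 HL50 marks the peptide level lysing half of a 2% (v/v) suspension of washed human erythrocytes after 1 h at 37 °C. Released hemoglobin measured at 545 nm, scaled between PBS (0%) and Triton X-100 (2% or 1%; 100%). Selectivity index computed as HL50 over MIC.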

The subject of series [3] is S. aureus USA300. As to conditions: starting template; cited from earlier work.

In brackets after ≈: the same amount, converted by molar mass. Square brackets hold non-standard residues; d marks the D form. Peptide text beside a SMILES is read from it. Where only a bound is given, the exact number is not on record here.

The HC50 is the concentration that lyses half of the red blood cells. Higher therefore signals weaker haemolysis. Regarding `CC(C)C[C@@H](NC(=O)[C@@H](CC(C)C)NC(=O)[C@@H](CCCCN)NC(=O)[C@@H](CC(C)C)NC(=O)CNC(=O)[C@@H](CC(C)C)NC(=O)[C@@H](CO)NC(=O)[C@@H](CC(C)C)NC(=O)[C@@H](CC(C)C)NC(=O)[C@@H](CC(C)C)NC(=O)[C@@H](CCCCN)NC(=O)[C@@H](CC(C)C)NC(=O)CN)C(N)=O` [DFT561d, GLKLLLSLGLKLL] (H-G[dL][dK][dL][dL][dL][dS][dL]G[dL][dK][dL][dL]-NH2; N-terminus and C-terminus assumed), the MIC in the series on P. aeruginosa E411-17 is >50 µM; with E. coli E423-17, >50 µM; in the series with S. aureus USA300 [1] (USA300) it was 3.1 µM (≈ 4.28 µg/mL); in the series on S. aureus USA300 [1] (USA300, pH 6.8), 3.1 µM (≈ 4.28 µg/mL); with S. aureus USA300 [1] (USA300, pH 7.4), 1.6 µM (≈ 2.21 µg/mL); with S. aureus USA300 [1] (USA300, pH 8), 1.6 µM (≈ 2.21 µg/mL). The MIC is reported as 3.1 µM (≈ 4.28 µg/mL) in the series with S. aureus M838-17 (MRSA) and >50 µM with K. pneumoniae E406-17. Further, the “MIC PA (P. aeruginosa PAO1)” value in the series on P. aeruginosa PAO1 was >25 µM. Also, the “MIC E. faecium V286-17 (VRE)” value with E. faecium V286-17 (VRE) lay within 3.1 to 6.25 µM. For the same compound, the “MIC EC (E. coli ATCC 25922)” value against E. coli ATCC 25922 was >25 µM. Also, the “Protease stability” value in series [2] is “resistant to proteases”. In addition, the “MIC E. coli ampC E416-7” value against E. coli ampC E416-7 is >50 µM. Also, in “Hemolytic assay”, the concentration for 50% haemolysis (HC50) at 1 h is > 300 µM.

As for temporin-SHf, the “MIC against MRSA” value in the series with S. aureus USA300 [3] is 25 µM.
